Source: ChEMBL document CHEMBL1201862, “PubChem BioAssay data set” (2004)
The source made the active and inactive calls.

Assays:
[1] = molecular target: T1, DNA repair and recombination protein RAD54-like (Homo sapiens, UniProt Q92698); assay: RAD54 Holliday junction migration blockers – biochemical, fluorescence, cherry-picked samples, dose series, confirmation (AID 651657); type: functional
T1 sequence (Q92698 whole entry): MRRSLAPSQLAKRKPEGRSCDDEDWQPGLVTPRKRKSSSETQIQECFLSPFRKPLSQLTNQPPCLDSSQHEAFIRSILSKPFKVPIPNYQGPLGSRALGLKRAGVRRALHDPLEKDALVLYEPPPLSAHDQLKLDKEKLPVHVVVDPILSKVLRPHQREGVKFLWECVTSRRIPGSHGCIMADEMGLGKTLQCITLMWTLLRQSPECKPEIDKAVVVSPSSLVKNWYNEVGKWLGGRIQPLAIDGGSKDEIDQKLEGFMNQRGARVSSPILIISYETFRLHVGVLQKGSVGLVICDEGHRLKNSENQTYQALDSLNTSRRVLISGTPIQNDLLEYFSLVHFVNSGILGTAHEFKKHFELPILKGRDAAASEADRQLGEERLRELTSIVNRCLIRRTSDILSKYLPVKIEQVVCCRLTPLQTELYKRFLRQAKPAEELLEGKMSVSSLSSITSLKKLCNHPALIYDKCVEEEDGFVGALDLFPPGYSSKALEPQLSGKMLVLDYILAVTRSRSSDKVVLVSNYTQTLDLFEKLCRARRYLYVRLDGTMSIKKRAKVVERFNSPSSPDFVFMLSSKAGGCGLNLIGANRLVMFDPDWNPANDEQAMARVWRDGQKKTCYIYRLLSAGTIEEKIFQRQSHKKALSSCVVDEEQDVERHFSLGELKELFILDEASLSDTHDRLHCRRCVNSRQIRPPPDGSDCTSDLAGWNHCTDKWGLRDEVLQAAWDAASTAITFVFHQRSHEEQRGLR

Troponin, cardiac muscle [2] = molecular target: T2, Troponin, cardiac muscle (Homo sapiens, UniProt P19429+P45379+P63316); assay: Fluorescence-based biochemical high throughput dose response assay for activators of the calcium sensitivity of cardiac Regulated Thin Filaments (RTF). [Related pubchem assays (depositor defined):AID493008, AID493018, AID504382, AID504383]; type: protein-complex assay
[3] = molecular target: T3, RNA-binding protein pos-1 (Caenorhabditis elegans, UniProt G5EF15); assay: disruptors of C. elegans POS-1 RNA interaction – biochemical, fluorescence polarization, dose response (AID 1964);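 also: purified POS-1 fused to maltose binding protein made in E. coli; potency of compounds blocking POS-1 binding to fluorescent RNA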
T3 sequence (G5EF15 whole entry): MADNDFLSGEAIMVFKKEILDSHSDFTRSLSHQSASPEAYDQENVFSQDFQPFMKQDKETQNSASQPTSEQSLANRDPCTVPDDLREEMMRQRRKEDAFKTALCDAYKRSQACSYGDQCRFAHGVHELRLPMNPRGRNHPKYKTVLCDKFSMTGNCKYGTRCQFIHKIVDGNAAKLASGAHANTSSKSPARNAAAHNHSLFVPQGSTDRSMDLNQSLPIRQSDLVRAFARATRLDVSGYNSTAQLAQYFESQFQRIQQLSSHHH

Genome polyprotein = Genome polyprotein (dengue virus type 2, UniProt P29990); assay: flavivirus cap methylation enzyme inhibition – biochemical, confirmation dose response, primary screen (AID 588689); type: functional
[4] = loss of viability in HepG2 cells – cell-based, CellTiter-Glo, cherry-picked, cytotoxicity control for Shn3 inhibitor project, dose response (AID 624134); type: functional
[5] = molecular target: T4, Heat shock factor protein 1 (Mus musculus, UniProt P38532); assay: decrease of HSF1-responsive luciferase luminescence – cell-based, NIH3T3, dose retest, confirmation (AID 2382); type: functional;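 also: NIH3T3 fibroblasts with HSF1-driven luciferase reporter stressed by proteasome inhibitor MG132; luminescence from HSF1-driven luciferase expression after 8 hours of MG132 stress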
T4 sequence (P38532 whole entry): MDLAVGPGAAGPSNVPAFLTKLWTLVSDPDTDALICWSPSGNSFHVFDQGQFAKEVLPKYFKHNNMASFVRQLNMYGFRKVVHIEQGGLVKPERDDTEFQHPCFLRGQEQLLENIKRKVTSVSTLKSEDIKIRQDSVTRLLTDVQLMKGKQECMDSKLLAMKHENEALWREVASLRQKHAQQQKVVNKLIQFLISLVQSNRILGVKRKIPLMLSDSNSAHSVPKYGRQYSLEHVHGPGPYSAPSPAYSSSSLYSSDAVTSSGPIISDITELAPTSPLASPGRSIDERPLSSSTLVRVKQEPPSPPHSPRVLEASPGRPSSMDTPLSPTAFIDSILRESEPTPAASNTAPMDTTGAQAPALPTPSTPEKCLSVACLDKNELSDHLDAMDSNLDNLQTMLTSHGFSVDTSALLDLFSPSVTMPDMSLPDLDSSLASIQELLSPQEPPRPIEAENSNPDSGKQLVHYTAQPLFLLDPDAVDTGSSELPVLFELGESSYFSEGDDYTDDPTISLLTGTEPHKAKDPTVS

Troponin, cardiac muscle [6] = molecular target: T2, Troponin, cardiac muscle; assay: compounds desensitizing RTF to calcium – biochemical, fluorescence, cardiac regulated thin filaments, triplicate IC50, dose response (AID 504742); type: protein-complex assay
[7] = molecular target: Eukaryotic translation initiation factor 4E (Mus musculus, UniProt P63073); assay: blockers of eIF4G binding by eIF4E – biochemical, TR-FRET, dose response (AID 855); type: functional;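 also: potency for disrupting eIF4E binding to eIF4GI seen as loss of FRET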
[8] = molecular target: Small ubiquitin-related modifier 1 (Homo sapiens, UniProt P63165); assay: SUMO1 protein-protein binding blockers, potency – biochemical, FRET, dose response (AID 624383); type: functional; details: read-out: IC50_Mean
[9] = molecular target: T5, Dual specificity protein phosphatase 6 (Rattus norvegicus, UniProt Q64346); assay: inhibition of rat DUSP6 enzyme activity – biochemical, in vitro, primary screen (AID 425)
T5 sequence (Q64346 whole entry): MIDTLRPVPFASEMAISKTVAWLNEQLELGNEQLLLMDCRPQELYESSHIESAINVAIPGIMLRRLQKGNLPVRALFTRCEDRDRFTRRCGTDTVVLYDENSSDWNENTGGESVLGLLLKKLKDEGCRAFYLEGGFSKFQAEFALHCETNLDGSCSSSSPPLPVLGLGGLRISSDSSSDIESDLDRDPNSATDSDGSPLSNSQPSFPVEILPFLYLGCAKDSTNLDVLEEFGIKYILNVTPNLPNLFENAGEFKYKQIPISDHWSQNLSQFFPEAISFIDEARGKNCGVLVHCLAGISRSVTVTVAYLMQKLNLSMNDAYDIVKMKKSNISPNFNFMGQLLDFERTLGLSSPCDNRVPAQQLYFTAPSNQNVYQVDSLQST

Chain of Eukaryotic translation initiation factor 4E (P63073 whole entry): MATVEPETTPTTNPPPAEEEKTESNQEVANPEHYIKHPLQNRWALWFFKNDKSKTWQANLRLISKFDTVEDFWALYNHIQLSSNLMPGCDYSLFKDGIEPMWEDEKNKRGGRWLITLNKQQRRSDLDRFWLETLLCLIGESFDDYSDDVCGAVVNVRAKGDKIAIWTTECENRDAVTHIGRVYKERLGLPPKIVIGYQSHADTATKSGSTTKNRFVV
Chain of Genome polyprotein (P29990 2492-3391 limits assumed): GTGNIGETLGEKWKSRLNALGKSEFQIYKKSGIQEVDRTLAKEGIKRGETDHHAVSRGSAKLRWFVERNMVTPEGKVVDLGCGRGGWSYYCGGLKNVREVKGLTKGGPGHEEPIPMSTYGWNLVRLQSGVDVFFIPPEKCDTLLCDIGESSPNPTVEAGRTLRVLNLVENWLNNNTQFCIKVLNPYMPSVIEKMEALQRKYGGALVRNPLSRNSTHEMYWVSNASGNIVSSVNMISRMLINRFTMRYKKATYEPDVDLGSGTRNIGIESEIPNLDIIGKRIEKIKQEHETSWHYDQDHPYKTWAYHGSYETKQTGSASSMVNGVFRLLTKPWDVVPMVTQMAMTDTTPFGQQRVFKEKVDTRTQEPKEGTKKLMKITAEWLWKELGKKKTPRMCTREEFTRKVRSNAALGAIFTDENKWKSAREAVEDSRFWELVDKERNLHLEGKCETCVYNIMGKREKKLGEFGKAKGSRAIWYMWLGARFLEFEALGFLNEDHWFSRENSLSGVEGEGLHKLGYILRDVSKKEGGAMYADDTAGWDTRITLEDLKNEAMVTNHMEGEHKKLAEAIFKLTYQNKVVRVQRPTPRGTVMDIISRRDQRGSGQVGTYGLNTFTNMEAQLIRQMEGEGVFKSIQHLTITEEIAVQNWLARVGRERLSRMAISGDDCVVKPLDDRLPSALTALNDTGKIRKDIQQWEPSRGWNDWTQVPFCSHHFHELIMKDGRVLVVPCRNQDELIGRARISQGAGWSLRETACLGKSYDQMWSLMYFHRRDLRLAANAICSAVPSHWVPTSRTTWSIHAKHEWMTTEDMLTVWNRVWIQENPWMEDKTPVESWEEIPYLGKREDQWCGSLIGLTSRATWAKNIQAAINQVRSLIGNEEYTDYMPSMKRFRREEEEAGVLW
Chain of Small ubiquitin-related modifier 1 (P63165 whole entry): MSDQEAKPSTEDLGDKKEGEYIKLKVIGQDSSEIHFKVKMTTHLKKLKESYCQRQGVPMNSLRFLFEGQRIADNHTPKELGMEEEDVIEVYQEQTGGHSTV

For `CCN(CC)CCN1C(=O)c2cccc3cc(N)cc(c23)C1=O`, the AC50 [1] was 8.83 µM (active), the EC50 (Troponin, cardiac muscle [2]) was 21.3 µM (inactive) and the EC50 [3] was 6.62 µM (active).
With `O=S(=O)(O)c1cc(Cl)cc(N=Nc2ccc(O)cc2O)c1O` the IC50 (Genome polyprotein) was 58.3 µM (active).
For `C=C1C(=O)O[C@@H]2C[C@@H](C)[C@@H]3C=CC(=O)[C@@]3(C)[C@@H](OC(=O)CC(=O)O[C@H]3[C@@H]4C(=C)C(=O)O[C@@H]4C[C@@H](C)[C@@H]4C=CC(=O)[C@]43C)[C@H]12`, the AC50 [4] was 0.895 µM (active) and the EC50 [5] was 0.98 µM (active).
With `O=C(O)c1cccc(-n2cccc2/C=C2/NC(=O)N(c3ccc(Cl)cc3)C2=O)c1` the IC50 (Troponin, cardiac muscle [6]) was 3.45 µM (active), the IC50 [7] was 4.43 µM (active) and the IC50 [8] was 17.4 µM (active). The IC50 [9] was 3.28 µM (active).
